Consider eleven compounds from patent US20140051679A1, “KINASE INHIBITORS AND METHOD OF TREATING CANCER WITH SAME” (UNIVERISTY HEALTH NETWORKS, priority 2011, published 2014).

In assay [1] the test system is MDA-MB-231 breast cancer cells. As to the kind of experiment: Cell growth inhibition, Sulforhodamine B assay, MDA-MB-231. In kind it is cell-based. The conditions noted are these: Homo sapiens, 120 h, 5 days culture, SRB assay, read-out: Cell Line GI50 Range MDA-MB-231.
The subject of assay [2] is OVCAR-3 ovarian cancer cells. As to the kind of experiment: Cell growth inhibition, Sulforhodamine B assay, OVCAR-3. The format is cell-based. The conditions noted are these: Homo sapiens, 120 h, 5 days culture, SRB assay, read-out: Cell Line GI50 Range OVCAR-3. In general terms: In SRB staining, fixed cells bind dye roughly in proportion to their protein.
Assay [3] has as its system MDA-MB-468 breast cancer cells. As to the kind of experiment: Cell growth inhibition, Sulforhodamine B assay, MDA-MB-468. The format is cell-based. The conditions noted are these: Homo sapiens, 120 h, 5 days culture, SRB assay, read-out: Cell Line GI50 Range MDA-MB-468.
Assay [4] concerns HCT116 colon cancer cells. As to the kind of experiment: Cell growth inhibition, Sulforhodamine B assay, HCT116. The format is cell-based. The conditions noted are these: Homo sapiens, HCT-116, 120 h, 5 days culture, SRB assay, read-out: Cell Line GI50 Range HCT116.
Method: Breast cancer cells (MDA-MB-231, MDA-MB-468), colon cancer cells (HCT116, HT29) and ovarian cancer cells (PA-1, OVCAR-3) were seeded (1000 to 4000 in 80 μl per well depending on the cell growth rate) into 96 well plates 24 hours before compound overlay. Compounds were prepared as 10 mM stock solutions in 100% DMSO which were diluted with DMEM (Dulbecco's Modified Eagle's Medium) cell growth Medium (Invitrogen, Burlington, ON, Canada) containing 10% FBS (Fetal Bovine Serum) to concentrations ranging from 50 nM to 250 μM. Aliquots (20 μl) from each concentration were overlaid to 80 μl of the pre-seeded cells in the 96 well plates to make final concentrations of 10 nM to 50 μM. The cells were cultured for 5 days before the Sulforhodamine B assay (SRB) was performed to determine the compound's cell growth inhibition activity.
Sulforhodamine B (purchased from Sigma, Oakville, ON, Canada) is a water-soluble dye that binds to the basic amino acids of the cellular proteins. Thus, colorimetric measurement of the bound dye provides an estimate of the total protein mass that is related to the cell number. the cells are fixed in situ by gently aspirating off the culture media and adding 50 μl ice cold 10% Trichloroacetic Acid (TCA) per well and incubate at 4° C. for 30-60 min, The plates are washed with water five times and allowed to air dry for 5 min. Addition of 50 μl 0.4% (w/v) SRB solution in 1% (v/v) acetic acid to each well and incubatation for 30 min at RT completes the staining reaction. Following staining, plates are washed four times with 1% acetic acid to remove unbound dye and then allowed to air dry for 5 min. The stain is solubilized with 100 μl of 10 mM Tris pH 10.5 per well. Absorbance is read at 570 nm.
The percentage (%) of relative growth inhibition was calculated by comparing to DMSO treated only cells (100%). […] The GI50 was calculated using GraphPad PRISM software (GraphPad Software, Inc., San Diego, Calif., USA).
The subject of a further assay is HT29 colon cancer cells. As to the kind of experiment: Cell growth inhibition, Sulforhodamine B assay, HT29. The format is cell-based. Conditions: Homo sapiens, HT-29, 120 h, 5 days culture, SRB assay, read-out: Cell Line GI50 Range HT29.
A further assay has as its target T1, Aurora B (Homo sapiens, UniProt Q96GD4).
T1 construct: purchased Invitrogen PV3970
As to the kind of experiment: Aurora B inhibition assay (Z-Lyte). The format is biochemical. Conditions: 28 nM Aurora B, 128 μM ATP; read-out: IC50 Ranges Aurora B. The procedure: Aurora B inhibition was determined using the Z-Lyte assay kit from Invitrogen. The assay was performed using the recommended manufacturer's instructions with 128 μM ATP and 28 nM Aurora B (Invitrogen cat #PV3970). The % inhibition values were determined according to the manufacturer's directions and IC50 values were obtained using a non-linear 4 point logistic curve fit (XLfit4, IDBS)

The target of another assay is T2, human PLK4 (Homo sapiens, UniProt O00444).
T2 construct: amino terminal GST fusion of residues 1-391 of human PLK4; made in house; host or cells: E. coli
T2 sequence (O00444 1-391): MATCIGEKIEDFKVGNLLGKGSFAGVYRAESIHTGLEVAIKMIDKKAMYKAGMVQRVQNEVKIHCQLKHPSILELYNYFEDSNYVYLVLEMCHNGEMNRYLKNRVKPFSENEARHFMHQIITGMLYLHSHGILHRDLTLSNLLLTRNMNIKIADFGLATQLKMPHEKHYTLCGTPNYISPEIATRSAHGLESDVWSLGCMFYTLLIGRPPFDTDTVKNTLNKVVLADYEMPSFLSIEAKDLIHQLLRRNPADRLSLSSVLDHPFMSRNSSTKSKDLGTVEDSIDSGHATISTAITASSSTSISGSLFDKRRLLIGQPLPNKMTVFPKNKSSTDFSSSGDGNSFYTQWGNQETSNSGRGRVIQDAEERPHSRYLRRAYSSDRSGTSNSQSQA
Kind of assay: PLK4 inhibition assay (indirect ELISA). In kind it is biochemical. Conditions: GST-PLK4 4 nM, 15 μM ATP; read-out: IC50 Ranges PLK4. In short, it runs like this:
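Compounds were tested either at a single 10 μM dose or across 10-point titrations (typically 0.5 to 0.001 μM), preincubated 15 min with 4 nM GST-PLK4 (human 1-391, dephosphorylated) before 15 μM ATP was added. MBP substrate phosphorylation over 30 min, pH 7.5 HEPES/MgCl2 buffer, read by HRP/TMB ELISA (450 nm). % inhibition vs. high-activity control; IC50 by logistic fit.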
(In general: ELISA stands for enzyme-linked immunosorbent assay.)

In a further assay the target is T3, human TTK (Homo sapiens, UniProt P33981).
T3 construct: amino terminal GST fusion of full length human TTK; purchased Invitrogen
T3 sequence (P33981 1-857): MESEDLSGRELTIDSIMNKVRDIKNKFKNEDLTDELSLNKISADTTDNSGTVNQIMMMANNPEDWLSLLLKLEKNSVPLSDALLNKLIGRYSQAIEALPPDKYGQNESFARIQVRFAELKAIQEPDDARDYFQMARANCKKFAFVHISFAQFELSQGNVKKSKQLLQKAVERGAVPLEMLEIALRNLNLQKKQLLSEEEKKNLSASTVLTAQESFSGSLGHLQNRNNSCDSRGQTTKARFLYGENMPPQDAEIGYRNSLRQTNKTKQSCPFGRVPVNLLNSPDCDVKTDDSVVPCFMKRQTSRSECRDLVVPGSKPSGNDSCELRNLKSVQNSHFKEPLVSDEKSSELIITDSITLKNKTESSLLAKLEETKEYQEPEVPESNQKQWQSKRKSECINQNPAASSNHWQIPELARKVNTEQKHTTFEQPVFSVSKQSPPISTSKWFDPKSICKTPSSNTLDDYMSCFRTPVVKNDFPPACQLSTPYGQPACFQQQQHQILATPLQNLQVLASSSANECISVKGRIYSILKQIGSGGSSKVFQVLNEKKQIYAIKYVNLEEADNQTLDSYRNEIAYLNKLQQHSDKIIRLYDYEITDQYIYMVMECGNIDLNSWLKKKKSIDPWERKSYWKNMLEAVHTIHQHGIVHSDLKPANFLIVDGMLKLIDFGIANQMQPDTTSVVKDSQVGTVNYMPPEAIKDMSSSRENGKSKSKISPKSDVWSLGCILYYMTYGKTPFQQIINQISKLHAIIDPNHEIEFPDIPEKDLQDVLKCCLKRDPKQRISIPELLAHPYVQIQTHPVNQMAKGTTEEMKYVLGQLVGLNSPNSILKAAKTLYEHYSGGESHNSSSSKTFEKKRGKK
Kind of assay: TTK inhibition assay (indirect ELISA). Conditions: GST-TTK 0.68 nM, 16 μM ATP; read-out: IC50 Ranges TTK. In kind it is biochemical.

Broadly, the GI50 is the concentration that inhibits growth by half. Broadly, the IC50 is the concentration needed to halve the response being measured.

T1 sequence (Q96GD4 whole entry): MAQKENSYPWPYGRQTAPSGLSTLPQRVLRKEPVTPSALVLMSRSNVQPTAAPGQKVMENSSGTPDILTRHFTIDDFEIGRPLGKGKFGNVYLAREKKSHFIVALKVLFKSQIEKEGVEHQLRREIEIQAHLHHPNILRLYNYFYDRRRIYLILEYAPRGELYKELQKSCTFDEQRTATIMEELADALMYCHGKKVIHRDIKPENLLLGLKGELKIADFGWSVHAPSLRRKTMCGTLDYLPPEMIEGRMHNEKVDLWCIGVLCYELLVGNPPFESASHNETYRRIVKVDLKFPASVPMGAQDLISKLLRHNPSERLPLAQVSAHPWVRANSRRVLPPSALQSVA
Method for human TTK: Active TTK was purchased from Invitrogen as an amino terminal GST fusion of full length human TTK.
TTK activity was measured using an indirect ELISA detection system. GST-TTK (0.68 nM) was incubated in the presence of 16 μM ATP (Sigma cat#A7699), 50 mM Hepes pH 7.2, 1 mM EGTA, 10 mM MgCl2, and 0.1% Pluronic in a 96 well microtitre plate pre-coated with amino terminal 6 histidine, sumo tagged TTK (amino acid residues 1-275). The reaction was allowed to proceed for 30 minutes, followed by 5 washes of the plate with Wash Buffer (phosphate buffered saline supplemented with 0.2% Tween 20), and incubation for 30 minutes with a 1:3000 dilution of primary antibody (Cell Signaling cat#9381). The plate was washed 5 times with Wash Buffer, incubated for 30 minutes in the presence of secondary antibody coupled to horse radish peroxidase (BioRad cat#1721019, 1:3000 concentration), washed an additional 5 times with Wash Buffer, and incubated in the presence of TMB substrate (Sigma cat#T0440). The colourimetric reaction was allowed to continue for 5 minutes, followed by addition of stop solution (0.5 N sulphuric acid), and quantified by detection at 450 nm with either a monochromatic or filter based plate reader (Molecular Devices M5 or Beckman DTX880, respectively).
Compounds were pre-incubated in the presence of enzyme for 5 minutes prior to addition of ATP and the activity remaining quantified using the above described activity assay. The % Inhibition of a compound was determined using the following formula; % Inhibition=100×(1−(experimental value−background value)/(high activity control−background value)). The IC50 value was determined using a non-linear 4 point logistic curve fit (XLfit4, IDBS) with the formula; (A+(B/(1+((x/C)̂D)))), where A=background value, B=range, C=inflection point, D=curve fit parameter.

`O=C(Nc1ccc2[nH]nc(-c3ccc(OCCN4CCCC4)cc3)c2c1)C(c1ccsc1)N1CCCC1` (stereo not shown) [Example A44, 2-(pyrrolidin-1-yl)-N-(3-(4-(2-(pyrrolidin-1-yl)ethoxy)phenyl)-1H-indazol-5-yl)-2-(thiophen-3-yl)acetamideamide]: the GI50 (in assay [1]; in assay [2]; in assay [3]; in assay [4]; in the assay with HT29 colon cancer cells) was at most 5 µM throughout. In addition, the IC50 on Aurora B, on human PLK4 and on human TTK was at most 5 µM each time.
Consider `CCC(NC(=O)c1ccc2[nH]nc(-c3ccc(OC4CCN(C)CC4)cc3)c2c1)C1CCCCC1` (stereo not shown) [Example A69, N-(1-cyclohexylpropyl)-3-(4-((1-methylpiperidin-4-yl)oxy)phenyl)-1H-indazole-5-carboxamide], for which the GI50 (in assay [1]; in assay [2]; in assay [3]; in assay [4]; in the assay on HT29 colon cancer cells) was at most 5 µM throughout. Further, the half-maximal inhibitory concentration (IC50) on Aurora B, at human PLK4 and on human TTK was at most 5 µM each time.
For the compound `O=C(Nc1ccc2[nH]nc(-c3ccc(OCCCN4CCOCC4)cc3)c2c1)C(c1ccsc1)N1CCCC1` (stereo not shown) [Example A45, N-(3-(4-(3-morpholinopropoxy)phenyl)-1H-indazol-5-yl)-2-(pyrrolidin-1-yl)-2-(thiophen-3-yl)acetamide], the GI50 in assay [1] was at most 5 µM; in assay [2] it was 5 to 20 µM; in assay [3], at most 5 µM; in assay [4] it was at most 5 µM; with HT29 colon cancer cells, at most 5 µM. The IC50 on Aurora B, at human PLK4 and on human TTK was at most 5 µM each time.
With `Cc1cc(C)c(NC(=O)Nc2ccc3[nH]nc(-c4ccc(OC5CCN(C)CC5)cc4)c3c2)c(Cl)c1` [Example A77, 1-(2-chloro-4,6-dimethylphenyl)-3-(3-(4-((1-methylpiperidin-4-yl)oxy)phenyl)-1H-indazol-5-yl)urea], the GI50 (in assay [1]; in assay [2]; in assay [3]; in assay [4]; with HT29 colon cancer cells) was at most 5 µM in each case. For the same compound, the IC50 at Aurora B, on human PLK4 and on human TTK was at most 5 µM in each case.
On to `CN1CCC(Oc2ccc(-c3n[nH]c4ccc(NC(=O)C(c5ccsc5)N5CCCCC5)cc34)cc2)CC1` (stereo not shown) [Example A31, N-(3-(4-((1-methylpiperidin-4-yl)oxy)phenyl)-1H-indazol-5-yl)-2-(piperidin-1-yl)-2-(thiophen-3-yl)acetamide], for which the GI50 (in assay [1]; in assay [2]; in assay [3]; in assay [4]; in the assay with HT29 colon cancer cells) was at most 5 µM in each case. Moreover, the IC50 on Aurora B, on human PLK4 and at human TTK was at most 5 µM in each case.
As for `C[C@H](NC(=O)c1ccc2[nH]nc(-c3ccc(OC4CCN(C)CC4)cc3)c2c1)C1CCCCC1` [Example A38, (S)—N-(1-cyclohexylethyl)-3-(4-((1-methylpiperidin-4-yl)oxy)phenyl)-1H-indazole-5-carboxamide], the 50% growth inhibitory concentration (GI50) (in assay [1]; in assay [2]; in assay [3]; in assay [4]; in the assay with HT29 colon cancer cells) was at most 5 µM each time. The IC50 at Aurora B, on human PLK4 and at human TTK was at most 5 µM in each case.
Take `C[C@@H](NC(=O)c1ccc2[nH]nc(-c3ccc(OC4CCN(C)CC4)cc3)c2c1)c1cccs1` [Example A55, (R)-3-(4-((1-methylpiperidin-4-yl)oxy)phenyl)-N-(1-(thiophen-2-yl)ethyl)-1H-indazole-5-carboxamide]: the GI50 (in assay [1]; in assay [2]; in assay [3]; in assay [4]; in the assay with HT29 colon cancer cells) was at most 5 µM in each case. Further, the IC50 at Aurora B, at human PLK4 and on human TTK was at most 5 µM throughout.
Regarding `CN(C)CCCOc1ccc(-c2n[nH]c3ccc(NC(=O)C(c4ccsc4)N4CCCC4)cc23)cc1` (stereo not shown) [Example A43, N-(3-(4-(3-(dimethylamino)propoxy)phenyl)-1H-indazol-5-yl)-2-(pyrrolidin-1-yl)-2-(thiophen-3-yl)acetamide], the concentration for 50% growth inhibition (GI50) (in assay [1]; in assay [2]; in assay [3]; in assay [4]; in the assay with HT29 colon cancer cells) was at most 5 µM in each case. The IC50 on Aurora B, on human PLK4 and at human TTK was at most 5 µM in each case.
Regarding `CC(C)N1CCC(Oc2ccc(-c3n[nH]c4ccc(NC(=O)C(c5ccsc5)N5CCCC5)cc34)cc2)CC1` (stereo not shown) [Example A30, N-(3-(4-((1-isopropylpiperidin-4-yl)oxy)phenyl)-1H-indazol-5-yl)-2-(pyrrolidin-1-yl)-2-(thiophen-3-yl)acetamide], the GI50 (in assay [1]; in assay [2]; in assay [3]; in assay [4]; in the assay on HT29 colon cancer cells) was at most 5 µM each time. The IC50 on Aurora B, at human PLK4 and on human TTK was at most 5 µM each time.
In the case of `CN1CCC(Oc2ccc(-c3n[nH]c4ccc(NC(=O)C(c5ccsc5)C5CCCC5)cc34)cc2)CC1` (stereo not shown) [Example A36, 2-cyclopentyl-N-(3-(4-((1-methylpiperidin-4-yl)oxy)phenyl)-1H-indazol-5-yl)-2-(thiophen-3-yl)acetamide], the GI50 (in assay [1]; in assay [2]; in assay [3]; in assay [4]; with HT29 colon cancer cells) was at most 5 µM in each case. The IC50 on Aurora B, on human PLK4 and at human TTK was at most 5 µM throughout.
In the case of `O=C(Nc1ccc2[nH]nc(-c3ccc(OC4CCNCC4)cc3)c2c1)C(c1ccsc1)N1CCCC1` (stereo not shown) [Example A28, N-(3-(4-(piperidin-4-yloxy)phenyl)-1H-indazol-5-yl)-2-(pyrrolidin-1-yl)-2-(thiophen-3-yl)acetamide], the concentration for 50% growth inhibition (GI50) in assay [1] is at most 5 µM; in assay [2] it was 5 to 20 µM; in assay [3], at most 5 µM; in assay [4] it was at most 5 µM; in the assay on HT29 colon cancer cells it was at most 5 µM. Besides, the IC50 at Aurora B, on human PLK4 and on human TTK was at most 5 µM each time.
